Entries after “also recorded” stand apart in the source; their conditions may differ. Like-named read-outs stand apart in the source and are kept apart here. Where no end group is shown, it is not given here.

Data set [1] relates to Escherichia coli. Format: cell-based. On the procedure: (§1) In order to evaluate whether the antimicrobial peptides of the present disclosure have antimicrobial activity against bacteria other than Escherichia coli, antimicrobial effects against Escherichia coli, Staphylococcus aureus, Pseudomonas aeruginosa, and Candida albicans, which were strains announced by the Ministry of Food and Drug Safety, were examined.
(§2) Specifically, Escherichia coli, Staphylococcus aureus, and Pseudomonas aeruginosa were cultured using LB medium, and Candida albicans was cultured using YM medium, and then the cultured bacteria were dispensed into a 96-well plate. Antimicrobial peptide samples at various concentrations were added into the respective wells, and incubation was performed at 37° C. for 24 hours.

In data set [2] the test system is Staphylococcus aureus. Format: cell-based. How it is done:
as §1, §2

The test system of data set [3] is Pseudomonas aeruginosa. Format: cell-based. How it is done:
as §1, §2

In data set [4] the test system is Candida albicans. Format: cell-based. On the procedure:
as §1, §2

The test system of data set [5] is Escherichia coli. Format: cell-based. The note with it: for antimicrobial activity against Escherichia coli (in words): comparison between peptides, FIGS. 1A-4A. On the procedure:
Specifically, in order to evaluate the antimicrobial activity, the antimicrobial activity against Escherichia coli was measured, and Escherichia coli was treated with antimicrobial peptides, and cell viability was measured and compared.
In order to test the antimicrobial efficacy of antimicrobial peptides, Escherichia coli was cultured in LB medium for about 8 hours, and then the cultured bacteria were dispensed into a 96-well plate. Antimicrobial peptide samples at various concentrations were added into the respective wells, and incubation was performed at 37° C. for 24 hours.
In order to evaluate the antimicrobial activity against Escherichia coli, MIC (minimum inhibitory concentration) and IC50 were additionally measured in addition to the experiments conducted in Examples 1-1 and 1-2.
Specifically, an antimicrobial efficacy experiment was used as the experimental method, and the MIC and IC50 values for the experimental results were calculated by evaluating the minimum inhibitory concentration and the 50% inhibitory concentration with the absorbance and OD value, respectively.

The test system of data set [6] is Human keratinocytes (HaCaT). To be noted: 24 hours, comparison between peptides, FIGS. 1B-4B.
Description: Therefore, cytotoxicity to human keratinocytes was also evaluated by treating human keratinocytes with antimicrobial peptides and measuring cell viability.
Human keratinocytes (HaCaT) were purchased from ATCC (American Type Culture Collection, USA) and cultured in Dulbecco's modified Eagle's medium (DMEM, Gibco, USA) containing 10% fetal bovine serum (FBS, Gibco, USA) and 1% antibiotic-antimycotic (Gibco, USA) at 37° C. in a 5% CO2 incubator.
MTT assay was performed to determine the viability of HaCaT cells against antimicrobial peptides. HaCaT cells were cultured in a 96-well plate at 2×10^5 cells/mL for 24 hours, then treated with samples at various concentrations, and cultured again for 24 hours. The culture medium was removed, and the cells were treated with MTT solution (0.5 mg/mL in PBS). After 4 hours, the MTT solution was removed, DMSO was added to each well, and formazan was dissolved at 37° C. for 30 minutes. Absorbance was measured at 570 nm using a microplate reader (Molecular Devices Spectra MAX, Sunnyvale, CA, USA).
Data set [7] deals with Candida albicans. Description: Disk diffusion test (Kirby-Bauer): Candida albicans. Format: cell-based. The note with it: 10 μL sample, 37° C. for 16 hours. On the procedure: (§3) In order to perform a disk diffusion test for the four kinds of bacteria, the following experiment was conducted.
(§4) After Escherichia coli, Staphylococcus aureus, Pseudomonas aeruginosa, and Candida albicans were cultured in the respective media, a certain amount of the cultured bacteria was spread on unhardened solid media, and then the media were hardened. On the surface of the hardened solid medium, 10 μL of antimicrobial peptide sample was placed, a dry 3M paper disk was put thereon, then incubation was performed at 37° C. for 16 hours, and the size of the zone of inhibition was observed.
For orientation: A growth-free zone around the sample is the usual read-out of agar diffusion tests.

The test system of data set [8] is Escherichia coli. As to the kind of experiment: Disk diffusion test (Kirby-Bauer): Escherichia coli. Format: cell-based. The note with it: 10 μL sample, 37° C. for 16 hours. How it is done:
as §3, §4

In data set [9] the test system is Pseudomonas aeruginosa. As to the kind of experiment: Disk diffusion test (Kirby-Bauer): Pseudomonas aeruginosa. The note with it: 10 μL sample, 37° C. for 16 hours. Format: cell-based. How it is done:
as §3, §4

Data set [10] concerns Staphylococcus aureus. Description: Disk diffusion test (Kirby-Bauer): Staphylococcus aureus. Format: cell-based. To be noted: 10 μL sample, 37° C. for 16 hours. On the procedure: as §3, §4
Data set [11] concerns Escherichia coli. As to the kind of experiment: SEM analysis of Escherichia coli treated with peptide. To be noted: Escherichia coli treated for 30 minutes. Format: cell-based. How it is done:
In order to closely examine the effect of the antimicrobial peptide of the present disclosure on microorganisms, Escherichia coli was treated with the peptide of SEQ ID NO: 6 for 30 minutes, and then the antimicrobial effect was analyzed using a scanning electron microscope (SEM).
Specifically, for SEM analysis, Escherichia coli was cultured using LB medium, then a certain amount of cultured Escherichia coli was taken and treated with the peptide of SEQ ID NO: 6 for 30 minutes, washed with PBS 2 times, and then fixed with a primary fixative of 2% paraformaldehyde in PBS for 2 hours. After fixation, washing with PBS was performed 2 times, dehydration with 30%, 50%, 70%, 80%, 95%, and 100% ethanol was performed for 10 minutes in each step (the last treatment with 100% ethanol was repeated 3 times), and the pellets were lyophilized. After platinum coating using a coater, analysis by SEM was conducted.

The mark [12] stands for this setting: Escherichia coli, LB medium, 24 hours at 37° C., read-out: IC50.
Where [13] appears, read: Staphylococcus aureus, LB medium, 24 hours at 37° C., read-out: IC50.
Where [14] appears, read: Pseudomonas aeruginosa, LB medium, 24 hours at 37° C., read-out: IC50.
[15] abbreviates: Candida albicans, YM medium, 24 hours at 37° C., read-out: IC50.
Where [16] appears, read: Escherichia coli, 24 hours at 37° C., absorbance 600 nm.
Where [17] appears, read: Escherichia coli, 24 hours at 37° C., absorbance 600 nm, read-out: IC50.

As usually defined, the IC50 is the concentration needed to halve the response being measured. As for `CC[C@H](C)[C@H](NC(=O)[C@H](CCCCN)NC(=O)[C@H](CCCCN)NC(=O)[C@H](Cc1ccccc1)NC(=O)[C@H](CC(C)C)NC(=O)[C@H](CCCCN)NC(=O)[C@@H](N)CCCCN)C(=O)N[C@@H](CC(C)C)C(=O)N[C@@H](CCCCN)C(=O)N[C@@H](Cc1ccc(O)cc1)C(=O)N[C@@H](CC(C)C)C(=O)N[C@@H](CCCCN)C(=O)O` [SEQ ID NO: 1, H2N-[Lys-Lys-Leu-Phe-Lys-Lys-Ile-Leu-Lys-Tyr-Leu-Lys]-CO2H], the IC50 turned out to be 21 µM in the data set with Escherichia coli [1] (setting [12]), 22 µM in the data set with Staphylococcus aureus [2] (setting [13]), 12 µM in the data set on Pseudomonas aeruginosa [3] (setting [14]) and 19 µM with Candida albicans [4] (setting [15]). Moreover, in the data set with Escherichia coli [5], the “antimicrobial activity against Escherichia coli (in words)” value (shortened to “antimicrobial activity”) was “remarkably increased compared to that of the known peptide”. For the same compound, the “toxicity level to human keratinocytes (in words)” value in data set [6] was “maintained at a similar level to that of the known peptide”.

As usually defined, the MIC is the lowest concentration found to suppress growth. A lower MIC goes with a more susceptible organism. In the case of “H-KRLFKRILRYLK-OH [SEQ ID NO: 7, H2N-[Lys-Arg-Leu-Phe-Lys-Arg-Ile-Leu-Arg-Tyr-Leu-Lys]-CO2H]”, the IC50 in the data set on Escherichia coli [1] (24 h) came to 11 µM; in the data set on Staphylococcus aureus [2] (24 h), 13 µM; with Pseudomonas aeruginosa [3] (24 h) it was 8 µM; in the data set on Candida albicans [4] (24 h) it was 10 µM; in the data set with Escherichia coli [5] (24 h) it was 11 µM. Besides, in the data set with Escherichia coli [5] (24 h), the MIC stood at 62.5 µM.

As to “KRLFRKILKYLR [SEQ ID NO: 6, H2N-[Lys-Arg-Leu-Phe-Arg-Lys-Ile-Leu-Lys-Tyr-Leu-Arg]-CO2H]”, the zone of inhibition entry in the data set on Candida albicans [7], in the data set on Escherichia coli [8], in the data set with Pseudomonas aeruginosa [9] and in the data set with Staphylococcus aureus [10] was “transparent zones of inhibition with clear borders” in each case. The IC50 in the data set with Escherichia coli [1] (setting [12]) worked out at 9 µM; in the data set with Staphylococcus aureus [2] (setting [13]) it was 10 µM; in the data set on Pseudomonas aeruginosa [3] (setting [14]), 4 µM; in the data set with Candida albicans [4] (setting [15]) it was 6 µM; in the data set on Escherichia coli [5] (setting [17]) it was 9 µM. The MIC against Escherichia coli [5] (setting [16]) is 31.25 µM. Besides, the “antimicrobial activity” value in the data set on Escherichia coli [5] is on record as “most remarkably excellent”. The “effect on cell membrane observed by SEM” value in the data set with Escherichia coli [11] is “entire cell membrane of Escherichia coli is destroyed to form large pores and elution of cell contents of the bacteria is observed”.

In the case of “RKLFKRILRYLK [SEQ ID NO: 5, H2N-[Arg-Lys-Leu-Phe-Lys-Arg-Ile-Leu-Arg-Tyr-Leu-Lys]-CO2H]”, the IC50 with Escherichia coli [1] (setting [12]) was 12 µM; with Staphylococcus aureus [2] (setting [13]), 15 µM; with Pseudomonas aeruginosa [3] (setting [14]), 9 µM; with Candida albicans [4] (setting [15]), 11 µM; in the data set on Escherichia coli [5] (setting [17]), 12 µM. The compound also returned an MIC against Escherichia coli [5] (setting [16]) of 62.5 µM.

Turning to “RKLFRKILKYLR [SEQ ID NO: 8, H2N-[Arg-Lys-Leu-Phe-Arg-Lys-Ile-Leu-Lys-Tyr-Leu-Arg]-CO2H]”, the IC50 with Escherichia coli [1] (setting [12]) amounted to 10 µM; in the data set on Staphylococcus aureus [2] (setting [13]) it was 10 µM; in the data set on Pseudomonas aeruginosa [3] (setting [14]) it was 5 µM; with Candida albicans [4] (setting [15]) it was 8 µM; with Escherichia coli [5] (setting [17]), 10 µM. For the same compound, the minimum inhibitory concentration (MIC) in the data set on Escherichia coli [5] (setting [16]) was 31.25 µM. In addition, in the data set with Escherichia coli [5], the “antimicrobial activity” value is listed as “most remarkably excellent”.

Consider “RRLFRRILRYLR [SEQ ID NO: 2, H2N-[Arg-Arg-Leu-Phe-Arg-Arg-Ile-Leu-Arg-Tyr-Leu-Arg]-CO2H]”, for which the IC50 with Escherichia coli [1] (setting [12]) is 14 µM; in the data set on Staphylococcus aureus [2] (setting [13]), 17 µM; in the data set on Pseudomonas aeruginosa [3] (setting [14]) it was 10 µM; in the data set on Candida albicans [4] (setting [15]), 13 µM; with Escherichia coli [5] (setting [17]), 14 µM. This compound also gave an MIC against Escherichia coli [5] (setting [16]) of 62.5 µM. Further, in the data set on Escherichia coli [5], the “antimicrobial activity” value is “remarkably increased compared to that of the peptide of SEQ ID NO: 1; also recorded: remarkably excellent compared to that of the peptides of SEQ ID NO: 3 and SEQ ID NO: 4”. Also, in [6], the “toxicity level to human keratinocytes (in words)” value was “maintained at a level similar to that of SEQ. ID NO: 1 peptide; also recorded: greatly decreased compared to that of the peptides of SEQ ID NO: 3 and SEQ ID NO: 4”.
